Results published in ChEMBL document CHEMBL4346741, “Synthesis, pharmacological evaluation, and mechanistic study of adefovir mixed phosphonate derivatives bearing cholic acid and l-amino acid moieties for the treatment of HBV” (Bioorg Med Chem, 2019).

Tests used:
Hepatitis B virus = test: Antiviral activity against Hepatitis B virus infected in human HepG2.2.15 cells assessed as inhibition of viral DNA synthesis incubated for 2 days followed by replacement of fresh medium containing compound and measured at day 10 by RT-PCR analysis; format: functional, organism-based
HepG2 2.2.15 = test: Cytotoxicity against human HepG2.2.15 cells assessed as reduction in cell viability incubated for 12 hrs followed by replacement of fresh medium containing compound and measured after 2 days by CCK-8 assay; format: functional
[1] = Selectivity index, ratio of CC50 for cytotoxicity against human HepG2.2.15 cells to EC50 for HBV infected in human HepG2.2.15 cells; format: toxicity, cell-based; details: read-out: Ratio CC50/EC50
HK-2 [2] = test: Cytotoxicity against human HK2 cells assessed as reduction in cell viability at 100 umol/L after 72 hrs by MTT assay relative to control; format: cell-based; details: hk-2, 72 h, 100 µM
HK-2 [3] = test: Reduction in mitochondrial membrane potential in human HK2 cells assessed as decrease in red fluorescence at 25 to 100 uM after 72 hrs by JC-1 staining based flow cytometry; format: ADME, cell-based; details: hk-2, 72 h
HK-2 [4] = test: Reduction in mitochondrial membrane potential in human HK2 cells assessed as increase in green fluorescence at 25 to 100 uM after 72 hrs by JC-1 staining based flow cytometry; format: ADME, cell-based; details: hk-2, 72 h
HK-2 [5] = test: Induction of mitochondrial membrane dysfunction in human HK2 cells assessed as reduction in mitochondrial potential at 100 uM after 72 hrs by JC-1 staining based flow cytometry; format: cell-based; details: hk-2, 72 h
HK-2 [6] = test: Induction of apoptosis in human HK2 cells assessed as nuclear pyknosis at 25 to 100 uM measured after 72 hrs by Hoechst 33342 staining based fluorescence assay; format: cell-based; details: hk-2, 72 h
HK-2 [7] = test: Induction of apoptosis in human HK2 cells assessed as dense staining at 25 to 100 uM measured after 72 hrs by Hoechst 33342 staining based fluorescence assay; format: cell-based; details: hk-2, 72 h
HK-2 [8] = test: Induction of apoptosis in human HK2 cells assessed as presence of apoptotic bodies at 25 to 100 uM measured after 72 hrs by Hoechst 33342 staining based fluorescence assay; format: cell-based; details: hk-2, 72 h
HK-2 [9] = test: Induction of apoptosis in human HK2 cells assessed as early apoptotic cells at 25 uM measured after 72 hrs by Annexin V-FITC/propidium iodide staining based flow cytometry (reference value: 8.1%); format: cell-based; details: hk-2, 72 h
HK-2 [10] = test: Induction of apoptosis in human HK2 cells assessed as early apoptotic cells at 50 uM measured after 72 hrs by Annexin V-FITC/propidium iodide staining based flow cytometry (reference value: 8.1%); format: cell-based; details: hk-2, 72 h
HK-2 [11] = test: Induction of apoptosis in human HK2 cells assessed as early apoptotic cells at 100 uM measured after 72 hrs by Annexin V-FITC/propidium iodide staining based flow cytometry (reference value: 8.1%); format: cell-based; details: hk-2, 72 h
HK-2 [12] = test: Induction of apoptosis in human HK2 cells assessed as reduction in Bcl-2 expression at 25 to 100 uM after 72 hrs by Western blot analysis; format: cell-based; details: hk-2, 72 h
HK-2 [13] = test: Induction of apoptosis in human HK2 cells assessed as increase in Bax level at 25 to 100 uM after 72 hrs by Western blot analysis; format: cell-based; details: hk-2, 72 h
HK-2 [14] = test: Induction of apoptosis in human HK2 cells assessed as increase in Bax/Bcl2 ratio after 72 hrs by Western blot analysis; format: cell-based; details: hk-2, 72 h
HK-2 [15] = test: Induction of apoptosis in human HK2 cells assessed as induction of cleaved caspase 3 levels at 25 to 100 uM after 72 hrs by Western blot analysis; format: cell-based; details: hk-2, 72 h
[16] = molecular target: T1, Solute carrier family 22 member 6 (Homo sapiens, UniProt Q4U2R8); test: Substrate activity at human OAT1 expressed in HEK293 cells harboring pEGFP assessed as compound uptake measured after 20 mins by UPLC-MS/MS method; format: ADME, cell-based; details: hek293, 20 min
T1 sequence (Q4U2R8 whole entry): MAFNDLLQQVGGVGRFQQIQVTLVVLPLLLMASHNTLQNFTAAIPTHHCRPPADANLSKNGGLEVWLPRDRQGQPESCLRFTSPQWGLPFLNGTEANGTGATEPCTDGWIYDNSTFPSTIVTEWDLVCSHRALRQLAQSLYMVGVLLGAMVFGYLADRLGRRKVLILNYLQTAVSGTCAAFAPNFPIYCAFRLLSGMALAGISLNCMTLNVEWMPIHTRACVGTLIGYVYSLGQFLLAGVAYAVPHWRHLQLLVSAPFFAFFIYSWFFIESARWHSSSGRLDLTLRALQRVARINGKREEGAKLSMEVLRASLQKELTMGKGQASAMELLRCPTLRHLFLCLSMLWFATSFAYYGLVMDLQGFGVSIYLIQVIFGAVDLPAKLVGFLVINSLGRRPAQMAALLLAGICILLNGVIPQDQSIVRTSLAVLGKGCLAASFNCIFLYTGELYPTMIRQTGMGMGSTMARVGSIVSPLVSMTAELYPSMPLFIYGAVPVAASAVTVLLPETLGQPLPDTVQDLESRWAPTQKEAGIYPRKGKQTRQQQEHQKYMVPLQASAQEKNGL

[17] = molecular target: T1, Solute carrier family 22 member 6; test: Inhibition of human OAT1 expressed in HEK293 cells assessed as P-amino hippuric acid uptake inhibition incubated for 10 mins by UPLC-MS/MS method; format: ADME, cell-based
HEK293 [18] = test: Cytotoxicity against human HEK293 cells expressing OAT1 assessed as reduction in cell viability at 1000 uM after 1 hr by MTT assay relative to control; format: ADME, cell-based; details: hek293, 1 h
[19] = AUC (0 to t) in Sprague-Dawley rat at 100 mg/kg, po measured up to 24 hrs by LC-MS/MS analysis; format: ADME, organism-based; design: dose 100 mg/kg, time < 24 hr, route oral; details: in vivo
[20] = Volume of distribution in Sprague-Dawley rat at 100 mg/kg, po measured up to 24 hrs by LC-MS/MS analysis; format: ADME, organism-based; details: in vivo
[21] = Drug distribution in mouse kidney at 5.47 mg/kg, po measured up to 24 hrs by LC-MS/MS analysis; format: ADME, organism-based; details: in vivo
HK-2 [22] = test: Cytotoxicity against human HK2 cells assessed as reduction in cell viability after 72 hrs by MTT assay; format: cell-based; details: hk-2, 72 h
OAT1 = test: Selectivity ratio, ratio of substrate activity at human OAT1 expressed in HEK293 cells harboring pEGFP assessed as compound uptake to substrate activity in human HEK293 cells harboring pEGFP-N1 empty vector assessed as compound uptake; format: ADME, cell-based
HK-2 [23] = test: Cytotoxicity against human HK2 cells assessed as cell viability at 25 to 100 uM after 72 hrs by MTT assay relative to control; format: cell-based; details: hk-2, 72 h
HK-2 [24] = test: Induction of mitochondrial membrane dysfunction in human HK2 cells assessed as effect mitochondrial membrane potential at 100 uM after 72 hrs by JC-1 staining based flow cytometry; format: cell-based; details: hk-2, 72 h
HK-2 [25] = test: Nephrotoxicity in human HK2 cells assessed as decrease in cell apoptosis at 25 to 100 uM measured after 72 hrs by Hoechst 33342 staining based fluorescence assay relative to ADV; format: toxicity; design: scale not given: the % may be the effect or the level left; details: hk-2, 72 h
HK-2 [26] = test: Induction of apoptosis in human HK2 cells assessed as increase in Bax/Bcl2 ratio at 25 to 100 uM after 72 hrs by Western blot analysis; format: cell-based; details: hk-2, 72 h
HEK293 [27] = test: Substrate activity in human HEK293 cells harboring pEGFP-N1 empty vector assessed as compound uptake measured at 5 to 40 mins by UPLC-MS/MS method; format: ADME, cell-based
[28] = molecular target: T2, OAT1 (solute carrier family 22 member 6) (Homo sapiens, UniProt Q4U2R8); test: Safety index, ratio of Adefovir dipivoxil IC50 to compound IC50 for human OAT1 expressed in HEK293 cells; format: ADME, cell-based; details: read-out: Ratio IC50
T2 sequence (Q4U2R8 whole entry): T1 sequence (Q4U2R8 whole entry)

HEK293 [29] = test: Cytotoxicity against human HEK293 cells harboring pEGFP-N1 empty vector assessed as reduction in cell viability after 1 hr by MTT assay; format: cell-based; details: hek293, 1 h
[30] = Drug distribution in mouse liver at 5.47 mg/kg, po measured at 30 mins by LC-MS/MS analysis; format: ADME, organism-based; details: read-out: Drug uptake
[31] = Drug distribution in mouse liver at 5.47 mg/kg, po measured at 60 mins by LC-MS/MS analysis; format: ADME, organism-based; details: read-out: Drug uptake
[32] = Drug distribution in mouse liver at 5.47 mg/kg, po measured at 3 hrs by LC-MS/MS analysis; format: ADME, organism-based; details: read-out: Drug uptake
[33] = Drug distribution in mouse liver at 5.47 mg/kg, po measured at 6 hrs by LC-MS/MS analysis; format: ADME, organism-based; details: read-out: Drug uptake
[34] = Drug distribution in mouse liver at 5.47 mg/kg, po measured at 24 hrs by LC-MS/MS analysis; format: ADME, organism-based; details: read-out: Drug uptake
[35] = Potency index, ratio of ADV drug concentration to compound concentration in mouse liver measured at 30 mins; format: ADME, tissue-based; details: in vivo, 0.5 h
[36] = Potency index, ratio of ADV drug concentration to compound concentration in mouse liver measured at 60 mins; format: ADME, tissue-based; details: in vivo, 1 h
[37] = Potency index, ratio of ADV drug concentration to compound concentration in mouse liver measured at 3 hrs; format: ADME, tissue-based; details: in vivo
[38] = Potency index, ratio of ADV drug concentration to compound concentration in mouse liver measured at 6 hrs; format: ADME, tissue-based; details: in vivo
[39] = Potency index, ratio of ADV drug concentration to compound concentration in mouse liver measured at 24 hrs; format: ADME, tissue-based; details: in vivo
HEK293 [40] = test: Cytotoxicity against human HEK293 cells expressing OAT1 assessed as reduction in cell viability after 1 hr by MTT assay; format: ADME, cell-based; details: hek293, 1 h

Question: Which results are given for `CC(C)(C)C(=O)OCOP(=O)(COCCn1cnc2c(N)ncnc21)OCOC(=O)C(C)(C)C` [ADEFOVIR DIPIVOXIL]?
Answer: EC50 (Hepatitis B virus): 3.09 µM; CC50 (HepG2 2.2.15): 439 µM; selectivity ratio [1]: 142; Activity (HK-2 [2]): 61.01%; Activity (HK-2 [3]): Toxic; Activity (HK-2 [4]): Toxic; Activity (HK-2 [5]): Toxic; Activity (HK-2 [6]): Toxic; Activity (HK-2 [7]): Toxic; Activity (HK-2 [8]): Toxic; Activity (HK-2 [9]): 16.8%; Activity (HK-2 [10]): 18.9%; Activity (HK-2 [11]): 43.3%; Activity (HK-2 [12]): Toxic; Activity (HK-2 [13]): Toxic; Activity (HK-2 [14]): Dose-dependent effect; Activity (HK-2 [15]): Toxic; Activity [16]: 400 pmol/min/mg; IC50 [17]: 13.5 µM; Activity (HEK293 [18]): 47.16%; AUCt [19]: 1655.225 µg/L/h; Vd [20]: 153.128 L/kg; Drug uptake [21]: Active; Activity (HK-2 [22]): Dose-dependent effect; uptake ratio (OAT1): 7.5

Question: For `CC(C)C[C@@H](N)C(=O)OCCCOP(=O)(COCCn1cnc2c(N)ncnc21)OCCCOC(=O)CC[C@@H](C)[C@H]1CC[C@H]2[C@@H]3[C@@H](O)C[C@@H]4C[C@H](O)CC[C@]4(C)[C@H]3CC[C@]12C` (some centres not stated), which EC50 (Hepatitis B virus) is on record?
Answer: 0.42 µM

Question: And the CC50 (HepG2 2.2.15)?
Answer: 446 µM

Question: And the selectivity ratio [1]?
Answer: 1060

Question: And the Activity (HK-2 [23])?
Answer: Non-Toxic

Question: And the Activity (HK-2 [24])?
Answer: Non-Toxic

Question: What about the Activity (HK-2 [6]) of the same compound?
Answer: Non-Toxic

Question: What about the Activity (HK-2 [7]) of the same compound?
Answer: Non-Toxic

Question: What about the Activity (HK-2 [8]) of the same compound?
Answer: Non-Toxic

Question: What about the Activity (HK-2 [25]) of the same compound?
Answer: 37.4%

Question: And the Activity (HK-2 [9])?
Answer: 9.7%

Question: And the Activity (HK-2 [10])?
Answer: 6.1%

Question: What about the Activity (HK-2 [11]) of the same compound?
Answer: 5.9%

Question: And the Activity (HK-2 [26])?
Answer: Non-Toxic

Question: What about the Activity (HK-2 [15]) of the same compound?
Answer: Non-Toxic

Question: What about the Activity [16] of the same compound?
Answer: < 60 pmol/min/mg

Question: What about the Activity (HEK293 [27]) of the same compound?
Answer: < 60 pmol/min/mg

Question: What about the IC50 [17] of the same compound?
Answer: 286 µM

Question: And the selectivity ratio [28]?
Answer: 21

Question: What about the Activity (HEK293 [29]) of the same compound?
Answer: Non-Toxic

Question: What about the AUCt [19] of the same compound?
Answer: 4645.705 µg/L/h

Question: What about the Vd [20] of the same compound?
Answer: 78.716 L/kg

Question: And the concentration at 0.5 h [30]?
Answer: 305 ng/g

Question: What about the concentration at 1 h [31] of the same compound?
Answer: 1070 ng/g

Question: What about the concentration at 3 h [32] of the same compound?
Answer: 1160 ng/g

Question: And the concentration at 6 h [33]?
Answer: 721 ng/g

Question: What about the concentration at 24 h [34] of the same compound?
Answer: 695 ng/g

Question: And the Ratio [35]?
Answer: 4.2

Question: And the Ratio [36]?
Answer: 6.5

Question: What about the Ratio [37] of the same compound?
Answer: 3.4

Question: And the Ratio [38]?
Answer: 4.8

Question: And the Ratio [39]?
Answer: 8.8

Question: What about the Activity (HEK293 [40]) of the same compound?
Answer: Non-Toxic
